Patent US20240270762A1, “PENICILLIN-BINDING PROTEIN INHIBITORS” (priority 2021, published 2024)
≈ marks a conversion by molar mass, not a printed value.

What was measured:
[1] = molecular target: T1, PBP3 from Pseudomonas aeruginosa (PAO1) (Pseudomonas aeruginosa, UniProt G3XD46); experiment: Bocillin-FL fluorescence polarization competition binding, P. aeruginosa PBP3; conditions: Binding affinity to P. aeruginosa PBP3; fluorescence polarization competition binding assay using Bocillin-FL; read-out: P. aeruginosa PBP3 Potency
T1 construct: made in house
T1 sequence (G3XD46 whole entry): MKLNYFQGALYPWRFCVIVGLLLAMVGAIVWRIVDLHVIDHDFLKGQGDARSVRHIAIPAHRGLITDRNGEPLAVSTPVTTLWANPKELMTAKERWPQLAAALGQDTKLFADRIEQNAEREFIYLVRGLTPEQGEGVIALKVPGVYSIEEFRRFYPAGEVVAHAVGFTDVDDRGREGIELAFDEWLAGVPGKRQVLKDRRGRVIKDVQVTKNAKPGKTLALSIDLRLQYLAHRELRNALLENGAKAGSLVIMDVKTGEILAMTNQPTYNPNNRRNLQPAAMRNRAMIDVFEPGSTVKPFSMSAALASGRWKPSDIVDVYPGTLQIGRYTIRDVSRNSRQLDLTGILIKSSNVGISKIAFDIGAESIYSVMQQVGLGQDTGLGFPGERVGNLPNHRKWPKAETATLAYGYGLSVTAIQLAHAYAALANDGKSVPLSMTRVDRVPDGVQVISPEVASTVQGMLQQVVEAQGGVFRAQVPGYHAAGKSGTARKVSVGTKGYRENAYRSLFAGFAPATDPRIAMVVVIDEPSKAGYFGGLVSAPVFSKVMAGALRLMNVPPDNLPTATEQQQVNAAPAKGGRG
How it was run: (§1)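 Purified PBPs pre-incubated with inhibitor (E. coli PBP3 1.5 μM, 30 min; P. aeruginosa PBP3 0.75 μM, A. baumannii PBP1a 1 μM and PBP3 0.2 μM, 15 min), then Bocillin-FL 0.1 μM (0.05 μM for PBP1a) added; FP read up to 60 min. EC50 = concentration halving bound Bocillin-FL.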

[2] = test system: A. baumannii ATCC 17978; experiment: microbe, parasite or virus in culture; format: cell-based; conditions: Acinetobacter baumannii, ATCC17978, read-out: Minimum inhibitory concentration (MIC), A. baumannii ATCC 17978
[3] = test system: A. baumannii ATCC 19606; experiment: microbe, parasite or virus in culture; format: cell-based; conditions: Acinetobacter baumannii, ATCC19606, read-out: Minimum inhibitory concentration (MIC), A. baumannii ATCC 19606
[4] = test system: A. baumannii CDC-0033; experiment: microbe, parasite or virus in culture; format: cell-based; conditions: Acinetobacter baumannii, CDC0033, read-out: Minimum inhibitory concentration (MIC), A. baumannii CDC-0033
[5] = test system: P. aeruginosa ATCC 35151; experiment: microbe, parasite or virus in culture; format: cell-based; conditions: Pseudomonas aeruginosa, ATCC35151, read-out: Minimum inhibitory concentration, P. aeruginosa ATCC 35151
[6] = test system: A. baumannii CDC-0036; experiment: microbe, parasite or virus in culture; format: cell-based; conditions: Acinetobacter baumannii, CDC0036, read-out: Minimum inhibitory concentration (MIC), A. baumannii CDC-0036
[7] = test system: P. aeruginosa CDC-0095; experiment: microbe, parasite or virus in culture; format: cell-based; conditions: Pseudomonas aeruginosa, CDC0095, read-out: Minimum inhibitory concentration, P. aeruginosa CDC-0095
[8] = test system: B. thailandensis ATCC 700388; experiment: microbe, parasite or virus in culture; format: cell-based; conditions: Burkholderia thailandensis, ATCC700388, read-out: Minimum inhibitory concentration (MIC), B. thailandensis ATCC 700388
[9] = molecular target: T2, PBP3 from Acinetobacter baumannii (ATCC 19606) (Acinetobacter baumannii, UniProt A0ABX6CK25); experiment: Bocillin-FL fluorescence polarization competition binding, A. baumannii PBP3; conditions: fluorescence polarization competition binding assay using Bocillin-FL; read-out: A. baumannii PBP3 Potency
T2 sequence (A0ABX6CK25 64-610): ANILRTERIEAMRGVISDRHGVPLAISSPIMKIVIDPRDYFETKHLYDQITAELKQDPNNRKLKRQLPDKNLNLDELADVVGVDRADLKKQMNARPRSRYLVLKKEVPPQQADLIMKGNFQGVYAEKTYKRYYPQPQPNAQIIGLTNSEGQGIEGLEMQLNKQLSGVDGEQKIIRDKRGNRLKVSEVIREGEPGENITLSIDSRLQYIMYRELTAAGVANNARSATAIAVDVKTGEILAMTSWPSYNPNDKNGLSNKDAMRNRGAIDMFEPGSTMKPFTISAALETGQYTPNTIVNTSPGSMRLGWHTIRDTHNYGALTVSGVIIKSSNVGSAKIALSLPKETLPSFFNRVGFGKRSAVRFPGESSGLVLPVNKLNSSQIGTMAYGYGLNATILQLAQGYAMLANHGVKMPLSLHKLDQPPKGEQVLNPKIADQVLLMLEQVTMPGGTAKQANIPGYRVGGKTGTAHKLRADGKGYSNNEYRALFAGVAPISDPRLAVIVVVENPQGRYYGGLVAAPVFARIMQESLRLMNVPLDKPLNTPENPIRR
How it was run: as §1

Row | Structure (SMILES) | IC50 [1] [µM] | MIC [2] [µg/mL] | MIC [3] [µg/mL] | MIC [4] [µg/mL] | MIC [5] [µg/mL] | MIC [6] [µg/mL] | MIC [7] [µg/mL] | MIC [8] [µg/mL] | IC50 [9] [µM]
1 | O=C(O)c1c(F)ccc2c1OB(O)[C@@H](NC(=O)[C@H](NC(=O)N1CCN(S(=O)(=O)c3ccc(O)c(O)c3Cl)C1=O)c1ccc(P(=O)(O)O)cc1)C2 [Example 506, (R)-3-((R)-2-(3-((2-chloro-3,4-dihydroxyphenyl)sulfonyl)-2-oxoimidazolidine-1-carboxamido)-2-(4-phosphonophenyl)acetamido)-7-fluoro-2-hydroxy-3,4-dihydro-2H-benzo[e][1,2]oxaborinine-8-carboxylic acid] | < 10 | < 1 | < 1 | < 1 | < 1 | < 1 | < 1 | < 1 | 
2 | O=C(O)c1c(F)ccc2c1OB(O)[C@@H](NC(=O)C(NC(=O)N1CCN(S(=O)(=O)c3ccc(O)c(O)c3Cl)C1=O)c1ccc(P(=O)(O)O)cc1)C2 (stereo partly drawn) [Example 505, (3R)-3-(2-(3-((2-chloro-3,4-dihydroxyphenyl)sulfonyl)-2-oxoimidazolidine-1-carboxamido)-2-(4-phosphonophenyl)acetamido)-7-fluoro-2-hydroxy-3,4-dihydro-2H-benzo[e][1,2]oxaborinine-8-carboxylic acid] | < 10 | < 1 | < 1 | < 1 | < 1 | < 1 | < 1 | < 1 | 
3 | O=C(O)c1cccc2c1OB(O)[C@@H](NC(=O)[C@H](NC(=O)N1CCN(Cc3cc(F)c(O)c(O)c3Cl)C(=O)C1=O)c1ccc(P(=O)(O)O)cc1)C2 [Example 504, (R)-3-((R)-2-(4-(2-chloro-5-fluoro-3,4-dihydroxybenzyl)-2,3-dioxopiperazine-1-carboxamido)-2-(4-phosphonophenyl)acetamido)-2-hydroxy-3,4-dihydro-2H-benzo[e][1,2]oxaborinine-8-carboxylic acid] |  | < 1 | < 1 | < 1 | < 1 | < 1 | < 1 | < 1 | 
4 | O=C(O)c1c(F)ccc2c1OB(O)[C@@H](NC(=O)[C@H](NC(=O)N1CCN(C3CCN(Cc4cccnc4)CC3)C1=O)c1cc(F)c(O)c(O)c1Cl)C2 [Example 492, (R)-3-((R)-2-(2-chloro-5-fluoro-3,4-dihydroxyphenyl)-2-(2-oxo-3-(1-(pyridin-3-ylmethyl)piperidin-4-yl)imidazolidine-1-carboxamido)acetamido)-7-fluoro-2-hydroxy-3,4-dihydro-2H-benzo[e][1,2]oxaborinine-8-carboxylic acid] | < 10 | < 1 | < 1 | < 1 | < 1 | 2 to 4 (≈ 2.74 to 5.49 µM) | 2 to 4 (≈ 2.74 to 5.49 µM) | < 1 | < 10
5 | O=C(O)c1c(F)ccc2c1OB(O)[C@@H](NC(=O)[C@H](NC(=O)N1CCN(C3CCN(C(=O)c4ccc(O)c(O)c4Cl)CC3)C1=O)c1ccc(P(=O)(O)O)cc1)C2 [Example 494, (R)-3-((R)-2-(3-(1-(2-chloro-3,4-dihydroxybenzoyl)piperidin-4-yl)-2-oxoimidazolidine-1-carboxamido)-2-(4-phosphonophenyl)acetamido)-7-fluoro-2-hydroxy-3,4-dihydro-2H-benzo[e][1,2]oxaborinine-8-carboxylic acid] | < 10 | < 1 | < 1 | < 1 | < 1 | < 1 | 8 to 16 (≈ 9.95 to 19.9 µM) | < 1 | 
6 | O=C(O)c1c(F)ccc2c1OB(O)[C@@H](NC(=O)[C@H](NC(=O)N1CCN(C3CCN(C(=O)Nc4cc(F)c(O)c(O)c4Cl)CC3)C1=O)c1ccc(P(=O)(O)O)cc1)C2 (single isomer, unassigned) [Example 500] | < 10 | < 1 | < 1 | < 1 | < 1 | < 1 | < 1 | < 1 | 
7 | O=C(NCCN1CCN(C(=O)N[C@@H](C(=O)N[C@H]2Cc3ccc(F)c(C(=O)O)c3OB2O)c2ccc(P(=O)(O)O)cc2)C(=O)C1=O)c1ccc(O)c(O)c1Cl [Example 503, (R)-3-((R)-2-(4-(2-(2-chloro-3,4-dihydroxybenzamido)ethyl)-2,3-dioxopiperazine-1-carboxamido)-2-(4-phosphonophenyl)acetamido)-7-fluoro-2-hydroxy-3,4-dihydro-2H-benzo[e][1,2]oxaborinine-8-carboxylic acid] | < 10 | < 1 | < 1 | 2 to 4 (≈ 2.53 to 5.05 µM) | < 1 | 2 to 4 (≈ 2.53 to 5.05 µM) | < 1 | < 1 | 
8 | O=C(O)c1c(F)ccc2c1OB(O)[C@@H](NC(=O)[C@H](NC(=O)N1CCN(C3CCN(C(=O)Nc4ccc(O)c(O)c4Cl)CC3)C1=O)c1ccc(P(=O)(O)O)cc1)C2 (single isomer, unassigned) [Example 497] | < 10 | < 1 | < 1 | < 1 | < 1 | < 1 | 32 to 64 (≈ 39.1 to 78.2 µM) | < 1 | 
9 | O=C(O)c1c(F)ccc2c1OB(O)[C@@H](NC(=O)[C@H](NC(=O)N1CCN(Cc3ccc(O)c(O)c3Cl)C(=O)C1=O)c1cc(F)c(P(=O)(O)O)c(F)c1)C2 [Example 502, (R)-3-((R)-2-(4-(2-chloro-3,4-dihydroxybenzyl)-2,3-dioxopiperazine-1-carboxamido)-2-(3,5-difluoro-4-phosphonophenyl)acetamido)-7-fluoro-2-hydroxy-3,4-dihydro-2H-benzo[e][1,2]oxaborinine-8-carboxylic acid] | < 10 | < 1 | < 1 | < 1 | < 1 | < 1 | 2 to 4 (≈ 2.59 to 5.19 µM) | < 1 | 
10 | O=C(O)c1c(F)ccc2c1OB(O)[C@@H](NC(=O)[C@H](NC(=O)N1CCN(C3CCN(C(=O)c4cc(O)c(O)c(Cl)c4)CC3)C1=O)c1ccc(P(=O)(O)O)cc1)C2 [Example 496, (R)-3-((R)-2-(3-(1-(3-chloro-4,5-dihydroxybenzoyl)piperidin-4-yl)-2-oxoimidazolidine-1-carboxamido)-2-(4-phosphonophenyl)acetamido)-7-fluoro-2-hydroxy-3,4-dihydro-2H-benzo[e][1,2]oxaborinine-8-carboxylic acid] | < 10 | < 1 | < 1 | < 1 | < 1 | < 1 | 8 to 16 (≈ 9.95 to 19.9 µM) | < 1 | 
11 | O=C(O)c1c(F)ccc2c1OB(O)[C@@H](NC(=O)[C@H](NC(=O)N1CCN(C3CCN(C(=O)c4cc(F)c(O)c(O)c4Cl)CC3)C1=O)c1ccc(P(=O)(O)O)cc1)C2 (single isomer, unassigned) [Example 495] | < 10 | < 1 | < 1 | < 1 | < 1 | < 1 | 32 to 64 (≈ 38.9 to 77.9 µM) | < 1 | 
12 | O=C(O)c1cccc2c1OB(O)[C@@H](NC(=O)[C@H](NC(=O)N1CCN(S(=O)(=O)c3ccc(O)c(O)c3Cl)C1=O)c1ccc(P(=O)(O)O)cc1)C2 [Example 509, (R)-3-((R)-2-(3-((2-chloro-3,4-dihydroxyphenyl)sulfonyl)-2-oxoimidazolidine-1-carboxamido)-2-(4-phosphonophenyl)acetamido)-2-hydroxy-3,4-dihydro-2H-benzo[e][1,2]oxaborinine-8-carboxylic acid] | < 10 | < 1 | < 1 | < 1 | < 1 | < 1 | < 1 | < 1 | 
